From US20060094737A1, “Novel uracil derivatives and medicinal use thereof” (Sumitomo Pharmaceuticals CO. Ltd., priority 2002, published 2006)

Key:
[1] = system: itch-related behavior induced by substance P; test: Inhibitory effect on the itch-related behavior of mice induced by substance P; type: in vivo, BALB/c strain male mice; conditions: frequency counted for 60 minutes, vs 0.5% CMC-Na group
Procedure: It has been reported that in the lesion part of a patient with atopic dermatitis, there are observed an increase in nerve fiber containing substance P (SP), a nerve peptide (Tobin D et al., J Allergy Clin immunol, 90, 613-22(1992)) and an increase in reactivity with SP (Gianetti A et al. Br J Dermatol, 121, 681-8(1989)). On the other hand, it has been reported that when SP is administered to the cervicodorsal part of a mouse, itch-related behavior is induced (Kuraishi Y et al. Eur J Pharmacol, 275, 229-33(1995)) and is suppressed by a certain antiallergic agent (Inagaki N et al. Eur J Pharmacol, 400, 73-9(2000)). Therefore, in order to verify the itch-inhibiting effect of the uracil derivatives of the present invention, the itch-inhibiting effect was evaluated by employing the effect of the uracil derivatives on itch-related behavior induced by SP, as an indication. Each of BALB/c strain male mice was previously transferred to a cage for observation and allowed to acclimate to an observation environment, and then SP was subcutaneously administered (200 μg/mouse) to the cervicodorsal part of the mouse. After the administration, the mouse was returned to the cage for observation and the frequency of its itch-related behavior was measured for 60 minutes after the return. Each test drug was suspended in a 0.5% CMC-Na solution and orally administered in a dose of 10 mg/kg 30 minutes before the administration of SP. For evaluating the itch-inhibiting effect, the inhibition rate of the test drug was calculated as an indication as follows by comparison with a group treated with a 0.5% CMC-Na solution. As a comparative example, an antiallergic agent Oxatomide, which is considered as an agent having itch-inhibiting effect, was administered in a dose of 3 times that of the test drug (30 mg/kg). [formula]

[2] = system: dermatitis induced by picryl chloride (type IV allergic inflammation); test: Inhibitory effect on dermatitis induced by picryl chloride, test compound applied on the ear; type: in vivo, ICR strain male mice; conditions: 0.04 ml of 0.25% (w/v) test compound/acetone on the ear; ear thickness 24 hours after the causing; relative to 2.5% (w/v) comparative compound 1 (10 times the amount)
Procedure: In order to verify the inflammation-inhibiting effect of the uracil derivative of the present invention, its effect on dermatitis induced by picryl chloride, a model of typical type IV allergic inflammation was evaluated by adopting the method of Asherson et al. (Immunology, 15, 405 (1968)). On the abdominal skin of each of ICR strain male mice was applied 0.1 ml of a 7% (w/v) picryl chloride/acetone solution to induce sensitization. On the seventh days after the sensitization, 0.02 ml of a 1% (w/v) picryl chloride/acetone solution was applied on the ear of each mouse to cause an allergic reaction. […] Twenty-four hours after the causing, the thickness of the ear was measured and the dermatitis-inhibiting effect of the test compound was evaluated by employing the difference between the thickness of the ear 24 hours after the causing and that before the causing as an indication. […]
From the difference of the ear thickness before and after the causing of the allergic reaction in the case of each group, the relative degree of efficacy of the test compound in the inhibition of ear enlargement was calculated according to the following equation by comparison with a group treated with the comparative compound in an amount of 10 times that of the test compound: [formula]

[3] = system: dermatitis induced by picryl chloride (type IV allergic inflammation); test: Inhibitory effect on dermatitis induced by picryl chloride, oral administration; type: in vivo, ICR strain male mice; conditions: oral 10 mg/kg in 0.5% CMC-Na one hour before the causing; relative to comparative compound 1 oral 100 mg/kg
Procedure: The effect on the animal model in Evaluation Example 1 was verified by oral administration. ICR strain male mice were sensitized in the same manner as in Evaluation Example 1, and on the seventh days after the sensitization, 0.02 ml of a 1% (w/v) picryl chloride/acetone solution was applied on the ear of each mouse to cause an allergic reaction. Each test compound was suspended in a 0.5% CMC-Na solution and orally administered in a dose of 10 mg/kg one hour before the causing of the allergic reaction. As a comparative example, the above-mentioned comparative compound 1 disclosed in Japanese Patent No. 3093170 was orally administered in a dose of 100 mg/kg to make a comparison.

[4] = oral 10 mg/kg 30 minutes before SP (200 μg/mouse s.c.)

SMILES	Degree of efficacy (relative degree of efficacy in the inhibition of ear enlargement) [3]	other results
Cc1c(O)c(C)c(C(=O)Nc2c(N)n(-c3cccc4ccccc34)c(=O)n(C)c2=O)c2c1CCC(C)(C)O2 [Example 2, 6-amino-5-(6-hydroxy-2,2,5,7-tetramethyl-chroman-8-carboxamide)-3-methyl-1-(1-naphthyl)uracil]	–	Inhibition rate (%) of itch-related behavior [1, 4]: 71%
Cc1cc(OCC(=O)Nc2c(N)n(-c3cccc4ccccc34)c(=O)n(C)c2=O)c(C)c(C)c1O [Example 4, 6-amino-5-[(4-hydroxy-2,3,5-trimethyl)phenoxy]acetamide-3-methyl-1-(1-naphthyl)uracil]	–	Degree of efficacy (relative degree of efficacy in the inhibition of ear enlargement) [2]: 0.9
Cc1cc(OCC(=O)Nc2c(N)n(-c3cccc4ccccc34)c(=O)n(C)c2=O)c(C)c(C)c1N [Example 5, 6-amino-5-[(4-amino-2,3,5-trimethyl)phenoxy]acetamide-3-methyl-1-(1-naphthyl)uracil]	–	Degree of efficacy (relative degree of efficacy in the inhibition of ear enlargement) [2]: 1.1; Inhibition rate (%) of itch-related behavior [1, 4]: 53%
CCn1c(=O)c(NC(=O)c2c(C)c(O)c(C)c3c2OC(C)(C)CC3)c(N)n(-c2cccnc2OC)c1=O [Example 10, 6-amino-3-ethyl-5-(6-hydroxy-2,2,5,7-tetramethylchroman-8-carboxamide)-1-(2-methoxypyridin-3-yl)uracil]	1.6	–
CCCCn1c(=O)c(NC(=O)c2c(C)c(O)c(C)c3c2OC(C)(C)C3)c(N)n(-c2cccc3ccccc23)c1=O [Example 14, 6-amino-3-butyl-5-(6-hydroxy-2,2,5,7-tetramethyl-3-oxaindan-4-carboxamide)-1-(1-naphthyl)uracil]	1.0	–
CCn1c(=O)c(NC(=O)c2c(C)c(O)c(C)c3c2OC(C)(C)C3)c(N)n(-c2cccc3c2CCC3)c1=O [Example 20, 6-amino-3-ethyl-5-(6-hydroxy-2,2,5,7-tetramethyl-3-oxaindan-4-carboxamide)-1-(4-indanyl)uracil]	1.2	–
Cc1c(O)c(C)c(C(=O)Nc2c(N)n(-c3cccc4c3CCCC4)c(=O)n(C)c2=O)c2c1CC(C)(C)O2 [Example 22, 6-amino-3-methyl-5-(6-hydroxy-2,2,5,7-tetramethyl-3-oxaindan-4-carboxamide)-1-(5,6,7,8-tetrahydro-1-naphthyl)uracil]	1.3	–
Cc1cccc(-n2c(N)c(NC(=O)COc3cc(C)c(N)c(C)c3C)c(=O)n(C)c2=O)c1C [Example 29, 6-amino-5-[(4-amino-2,3,5-trimethyl)phenoxy]acetamide-3-methyl-1-(2,3-dimethylphenyl)uracil]	1.4	–
CNc1c(NC(=O)COc2cc(C)c(N)c(C)c2C)c(=O)n(C)c(=O)n1-c1cccc(C)c1C [Example 30, 6-methylamino-5-[(4-amino-2,3,5-trimethyl)phenoxy]acetamide-3-methyl-1-(2,3-dimethylphenyl)uracil]	1.6	–
O=c1[nH]c2ccccc2n1CCCN1CCN(C(c2ccccc2)c2ccccc2)CC1 [Oxatomide, reference compound]	–	Inhibition rate (%) of itch-related behavior ([1]; oral 30 mg/kg 30 minutes before SP (200 μg/mouse s.c.)): 39%
